Measurements reported in patent US20110124588A1, “SYNERGISTIC ACTIVE INGREDIENT COMBINATIONS” (Bayer Cropscience AG, priority 2008, published 2011).
Read-outs that look alike come from different tables or passages of the source.

Key:
Spodoptera frugiperda = Spodoptera frugiperda larvae test (sprayed cabbage leaves); format: in vivo, army worm (Spodoptera frugiperda) larvae; settings: for pest or weed control at 4 g/ha / pest or weed control at 0.16 g/ha / pest or weed control at 0.8 g/ha / pest or weed control at 100 g/ha / pest or weed control at 20 g/ha: Spodoptera frugiperda
From the text: The expected activity of a given combination of two active compounds can be calculated as follows, according to S. R. Colby, Weeds 15 (1967), 20-22:
X is the kill rate, expressed as a percentage of the untreated control, when employing active compound A at an application rate of m g/ha or in a concentration of m ppm, Y is the kill rate, expressed as a percentage of the untreated control, when employing active compound B at an application rate of n g/ha or in a concentration of n ppm and E is the kill rate, expressed as a percentage of the untreated control, when employing active compounds A and B at application rates of m and n g/ha or in a concentration of m and n ppm, then
(§1) If the actual kill rate exceeds the calculated value, the kill of the combination is superadditive, i.e. a synergistic effect is present. In this case, the actually observed kill rate must exceed the value calculated using the above formula for the expected kill rate (E).
(§2) solvents: 78 parts by weight of acetone • • 1.5 parts by weight of dimethylformamide emulsifier: 0.5 part by weight of alkylaryl polyglycol ether
To produce a suitable preparation of active compound, 1 part by weight of active compound is mixed with the stated amounts of solvents and emulsifier, and the concentrate is diluted with emulsifier-containing water to the desired concentration.
Cabbage leaves (Brassica oleracea) are treated by spraying with the active compound preparation of the desired concentration and are populated with larvae of the army worm (Spodoptera frugiperda) while the leaves are still moist.
After the desired period of time, the kill in % is determined 100% means that all caterpillars have been killed; 0% means that none of the caterpillars have been killed. The kill rates determined are entered into Colby's formula.

Phaedon cochleariae = Phaedon cochleariae larvae test (sprayed cabbage leaves); format: in vivo, mustard beetle (Phaedon cochleariae) larvae; settings: for pest or weed control at 100 g/ha / pest or weed control at 0.16 g/ha / pest or weed control at 4 g/ha / pest or weed control at 0.8 g/ha / pest or weed control at 20 g/ha: Phaedon cochleariae
Procedure: as §1
Solvents: 78 parts by weight of acetone • • 1.5 parts by weight of dimethylformamide Emulsifier: 0.5 part by weight of alkylaryl polyglycol ether
After the desired period of time, the kill in % is determined 100% means that all beetle larvae have been killed; 0% means that none of the beetle larvae have been killed. The kill rates determined are entered into Colby's formula.

Myzus persicae = Myzus persicae test (spray treatment of infested cabbage leaves); format: in vivo, green peach aphid (Myzus persicae); settings: for pest or weed control at 0.032 g/ha / pest or weed control at 0.0064 g/ha / pest or weed control at 4 g/ha / pest or weed control at 0.16 g/ha / pest or weed control at 0.8 g/ha: Myzus persicae
Procedure: as §1, §2
After the desired period of time, the kill in % is determined 100% means that all aphids have been killed; 0% means that none of the aphids have been killed. The kill rates determined are entered into Colby's formula.

[1] = 144 h, single active compound, 4 g/ha, 6 d, read-out: Kill in % after 6 d
[2] = single active compound, 0.8 g/ha, 6 d
[3] = 48 h, read-out: Kill in % after 2 d
[4] = 144 h, read-out: Kill in % after 6 d
[5] = 144 h, single active compound, 6 d, read-out: Kill in % after 6 d
[6] = single active compound, 0.8 g/ha, 2 d
[7] = 144 h, single active compound, 100 g/ha, 6 d, read-out: Kill in % after 6 d
[8] = 24 h, read-out: Kill in % after 1 d
[9] = single active compound, 4 g/ha, 6 d
[10] = 144 h, single active compound, 0.8 g/ha, 6 d, read-out: Kill in % after 6 d
[11] = 144 h, single active compound, 0.16 g/ha, 6 d, read-out: Kill in % after 6 d
[12] = 48 h, single active compound, 2 d, read-out: Kill in % after 2 d
[13] = 48 h, single active compound, 4 g/ha, 2 d, read-out: Kill in % after 2 d

## N#Cc1ccc(CC(=NNC(=O)Nc2ccc(OC(F)(F)F)cc2)c2cccc(C(F)(F)F)c2)cc1 (mixture of isomers) [metaflumizone]
Spodoptera frugiperda; [1]
  pest or weed control at 4 g/ha: 0%

## CN1CN(C)/C(=N\[N+](=O)[O-])N(Cc2cnc(Cl)s2)C1 [AKD 1022]
Phaedon cochleariae; [2]
  Kill in % after 6 d: 0%

## CNC(=O)c1cc(Cl)cc(C)c1NC(=O)c1cc(Br)nn1-c1ncccc1Cl [Rynaxapyr, Chlorantraniliprole]
Spodoptera frugiperda; [3]
  pest or weed control at 0.16 g/ha: 33%
Myzus persicae; [4]
  pest or weed control at 0.032 g/ha: 0%

## COP(=O)(NC(C)=O)SC (centres unmarked) [acephate]
Phaedon cochleariae; [4]
  pest or weed control at 100 g/ha: 0%

## C/C(=N\C#N)N(C)Cc1ccc(Cl)nc1 [acetamiprid]
Myzus persicae; [4]
  pest or weed control at 0.032 g/ha: 0%

## CC1(C)C(C=C(Cl)Cl)C1C(=O)OC(C#N)c1cccc(Oc2ccccc2)c1 (stereo not drawn) [alpha-cypermethrin]
Phaedon cochleariae; [5]
  pest or weed control at 0.16 g/ha: 0%
Phaedon cochleariae; [6]
  Kill in % after 2 d: 0%
Myzus persicae; [4]
  pest or weed control at 0.0064 g/ha: 0%

## CC(C)N1C(=O)N(c2ccccc2)CS/C1=N\C(C)(C)C [buprofezin]
Phaedon cochleariae; [7]
  pest or weed control at 100 g/ha: 0%
Myzus persicae; [8]
  pest or weed control at 4 g/ha: 0%

## CCOP(=S)(OCC)Oc1nc(Cl)c(Cl)cc1Cl [chlorpyrifos]
Spodoptera frugiperda; [9]
  Kill in % after 6 d: 33%
Myzus persicae; single active compound, 0.16 g/ha, 6 d
  Kill in % after 6 d: 0%
Myzus persicae; [2]
  Kill in % after 6 d: 0%

## CN/C(=N\[N+](=O)[O-])NCc1cnc(Cl)s1 [clothianidin]
Phaedon cochleariae; [1]
  pest or weed control at 4 g/ha: 50%
Myzus persicae; [4]
  pest or weed control at 0.16 g/ha: 40%

## Cc1cc(C(F)(C(F)(F)F)C(F)(F)F)ccc1NC(=O)c1cccc(Cl)c1C(=O)N[C@@H](C)CS(C)(=O)=O [compound II-28-2]
Phaedon cochleariae; [10]
  pest or weed control at 0.8 g/ha: 0%
Spodoptera frugiperda; [11]
  pest or weed control at 0.16 g/ha: 50%
Myzus persicae; 144 h, single active compound, 0.032 g/ha, 6 d, read-out: Kill in % after 6 d
  pest or weed control at 0.032 g/ha: 0%

## CN(Cc1ccc(Cl)nc1)C1=CC(=O)OC1 [compound II-29-28, 4-{[(6-chloropyrid-3-yl)methyl](methyl)amino}furan-2(5H)-one]
Myzus persicae; [11]
  pest or weed control at 0.16 g/ha: 0%

## O=C1C=C(N(Cc2ccc(Cl)nc2)CC(F)F)CO1 [compound II-29-29, 4-{[(6-chloropyrid-3-yl)methyl](2,2-difluoroethyl)amino}furan-2(5H)-one]
Phaedon cochleariae; [7]
  pest or weed control at 100 g/ha: 67%
Myzus persicae; [4]
  pest or weed control at 0.8 g/ha: 50%

## CNC(=O)c1cc(C#N)cc(C)c1NC(=O)c1cc(Br)nn1-c1ncccc1Cl [cyazypyr, Cyantraniliprole]
Phaedon cochleariae; [12]
  pest or weed control at 0.16 g/ha: 17%
Myzus persicae; [8]
  pest or weed control at 0.16 g/ha: 0%

## CC1(C)C(C=C(Cl)Cl)C1C(=O)OC(C#N)c1cccc(Oc2ccccc2)c1 (centres unmarked) [cypermethrin]
Phaedon cochleariae; [6]
  Kill in % after 2 d: 50%
Spodoptera frugiperda; [4]
  pest or weed control at 0.8 g/ha: 50%
Myzus persicae; [4]
  pest or weed control at 0.032 g/ha: 0%
  pest or weed control at 0.16 g/ha: 0%

## Nc1nc(N)nc(NC2CC2)n1 [cyromazine]
Phaedon cochleariae; [5]
  pest or weed control at 20 g/ha: 0%
Myzus persicae; [4]
  pest or weed control at 0.16 g/ha: 0%
  pest or weed control at 0.8 g/ha: 0%

## CC[S+]([O-])c1c(C#N)nn(-c2c(Cl)cc(C(F)(F)F)cc2Cl)c1N (centres unmarked) [ethiprole]
Myzus persicae; [4]
  pest or weed control at 0.8 g/ha: 0%

## N#Cc1nn(-c2c(Cl)cc(C(F)(F)F)cc2Cl)c(N)c1[S+]([O-])C(F)(F)F (centres unmarked) [fipronil]
Myzus persicae; [4]
  pest or weed control at 0.8 g/ha: 0%

## N#CCNC(=O)c1cnccc1C(F)(F)F [flonicamid]
Phaedon cochleariae; [12]
  pest or weed control at 20 g/ha: 0%
Phaedon cochleariae; [10]
  pest or weed control at 0.8 g/ha: 0%
Phaedon cochleariae; [7]
  pest or weed control at 100 g/ha: 0%
Myzus persicae; [8]
  pest or weed control at 0.8 g/ha: 0%
  pest or weed control at 4 g/ha: 20%
Myzus persicae; [4]
  pest or weed control at 0.032 g/ha: 0%

## Cc1cc(C(F)(C(F)(F)F)C(F)(F)F)ccc1NC(=O)c1cccc(I)c1C(=O)NC(C)(C)CS(C)(=O)=O [flubendiamid, flubendiamide]
Phaedon cochleariae; [5]
  pest or weed control at 20 g/ha: 50%
Spodoptera frugiperda; [4]
  pest or weed control at 0.8 g/ha: 67%
Myzus persicae; [8]
  pest or weed control at 0.8 g/ha: 0%
  pest or weed control at 4 g/ha: 0%

## O=C(NC(=O)c1c(F)cccc1F)Nc1ccc(Oc2ccc(C(F)(F)F)cc2Cl)cc1F [flufenoxuron]
Phaedon cochleariae; [7]
  pest or weed control at 100 g/ha: 0%
Spodoptera frugiperda; [3]
  pest or weed control at 100 g/ha: 17%
Spodoptera frugiperda; [4]
  pest or weed control at 0.8 g/ha: 67%

## CC1(C)[C@H](/C=C(\Cl)C(F)(F)F)[C@@H]1C(=O)O[C@H](C#N)c1cccc(Oc2ccccc2)c1 [gamma-cyhalothrin]
Phaedon cochleariae; [5]
  pest or weed control at 0.16 g/ha: 0%
Spodoptera frugiperda; [4]
  pest or weed control at 0.16 g/ha: 17%
Myzus persicae; [4]
  pest or weed control at 0.032 g/ha: 0%

## O=[N+]([O-])/N=C1\NCCN1Cc1ccc(Cl)nc1 [imidacloprid]
Phaedon cochleariae; [13]
  pest or weed control at 4 g/ha: 0%
Phaedon cochleariae; [1]
  pest or weed control at 4 g/ha: 0%
Phaedon cochleariae; [5]
  pest or weed control at 20 g/ha: 50%
Myzus persicae; [8]
  pest or weed control at 0.16 g/ha: 50%

## O=[N+]([O-])/N=C1\NCCN1Cc1cnc(Cl)s1 [imidaclothiz]
Phaedon cochleariae; [1]
  pest or weed control at 4 g/ha: 0%

## COC(=O)N(C(=O)N1COC2(C(=O)OC)Cc3cc(Cl)ccc3C2=N1)c1ccc(OC(F)(F)F)cc1 (centres unmarked) [indoxacarb]
Phaedon cochleariae; [13]
  pest or weed control at 4 g/ha: 0%
Phaedon cochleariae; [12]
  pest or weed control at 20 g/ha: 33%
Myzus persicae; [4]
  pest or weed control at 0.8 g/ha: 0%

## CC1(C)C(/C=C(\Cl)C(F)(F)F)C1C(=O)OC(C#N)c1cccc(Oc2ccccc2)c1 (centres unmarked) [lambda-cyhalothrin]
Phaedon cochleariae; [5]
  pest or weed control at 0.16 g/ha: 17%
Spodoptera frugiperda; [4]
  pest or weed control at 0.8 g/ha: 67%
Myzus persicae; [4]
  pest or weed control at 0.0064 g/ha: 0%
  pest or weed control at 0.032 g/ha: 0%

## O=C(NC(=O)c1c(F)cccc1F)Nc1cc(Cl)c(OC(F)(F)C(F)C(F)(F)F)cc1Cl (centres unmarked) [lufenuron]
Phaedon cochleariae; 48 h, single active compound, 100 g/ha, 2 d, read-out: Kill in % after 2 d
  pest or weed control at 100 g/ha: 0%
Spodoptera frugiperda; [3]
  pest or weed control at 100 g/ha: 0%

## COc1cccc(C(=O)NN(C(=O)c2cc(C)cc(C)c2)C(C)(C)C)c1C [methoxyfenozide]
Phaedon cochleariae; [5]
  pest or weed control at 20 g/ha: 0%
Spodoptera frugiperda; [4]
  pest or weed control at 4 g/ha: 50%
Myzus persicae; [4]
  pest or weed control at 0.16 g/ha: 0%
  pest or weed control at 0.8 g/ha: 0%

## CCCSP(=O)(OCC)Oc1ccc(Br)cc1Cl (centres unmarked) [profenofos]
Phaedon cochleariae; [12]
  pest or weed control at 20 g/ha: 50%

## FC(F)(F)c1ccc(OCCCOc2c(Cl)cc(OCC=C(Cl)Cl)cc2Cl)nc1 [pyridalyl]
Spodoptera frugiperda; [3]
  pest or weed control at 20 g/ha: 67%

## N#C/N=C1\SCCN1Cc1ccc(Cl)nc1 [thiacloprid]
Phaedon cochleariae; [5]
  pest or weed control at 20 g/ha: 50%
Spodoptera frugiperda; [4]
  pest or weed control at 20 g/ha: 50%
Myzus persicae; [8]
  pest or weed control at 0.16 g/ha: 0%

## CN1COCN(Cc2cnc(Cl)s2)/C1=N/[N+](=O)[O-] [thiamethoxam]
Phaedon cochleariae; [10]
  pest or weed control at 0.8 g/ha: 0%
Myzus persicae; [4]
  pest or weed control at 0.0064 g/ha: 0%
  pest or weed control at 0.032 g/ha: 0%

## O=C(NC(=O)c1ccccc1Cl)Nc1ccc(OC(F)(F)F)cc1 [triflumuron]
Spodoptera frugiperda; [4]
  pest or weed control at 0.8 g/ha: 33%

## milbemectin
Phaedon cochleariae; [2]
  Kill in % after 6 d: 0%
Spodoptera frugiperda; [2]
  Kill in % after 6 d: 0%

## pyridaben
Phaedon cochleariae; [9]
  Kill in % after 6 d: 50%
Myzus persicae; [2]
  Kill in % after 6 d: 0%
